Results from US9918990B2, “Substituted pyrrolo[2,3-c]pyridines and pyrazolo[3,4-c]pyridines as BET protein inhibitors” (Incyte Corporation, priority 2013, dated 2018).

What was measured:
BRD4-BD1 = BRD4-BD1 (Homo sapiens (Human), UniProt O60885); experiment: BRD4 AlphaScreen assay, BRD4-BD1; assay type: binding; conditions: H4Ac4 peptide, 75 min, room temperature, read-out: BRD4 BD-1 enzyme IC50
How it was run: (§1)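 AlphaScreen read after 75 min dark incubation at room temperature, inhibitors serially diluted in DMSO and added before other components. IC50 from fit of percent control activity versus log inhibitor concentration.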

BRD4-BD2 = BRD4-BD2 (Homo sapiens (Human), UniProt O60885); experiment: BRD4 AlphaScreen assay, BRD4-BD2; assay type: binding; conditions: H4Ac4 peptide, 75 min, room temperature, read-out: BRD4 BD-2 enzyme IC50
How it was run: as §1

KMS.12.BM cells = experiment: KMS.12.BM cell viability assay (Cell Titer-GLO, ATP quantitation); assay type: cell-based; conditions: Homo sapiens, 72 h, 3 days, concentration required for 50% cell death, read-out: KMS cellular IC50
How it was run: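 Human myeloma KMS.12.BM cells, 5000 cells/well in RPMI with 10% FBS, were exposed to a compound concentration range for 3 days. Viability was read by Cell Titer-GLO ATP luminescence relative to untreated cells; IC50 is the concentration giving 50% cell death.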

C-myc = experiment: KMS.12.BM C-myc ELISA assay; assay type: cell-based; conditions: Homo sapiens; KMS.12.BM cells, 2 hours, concentration required for 50% C-myc inhibition
Procedure: KMS.12.BM cell line (human myeloma) was purchased from JCRB (Osaka, Japan) and maintained in RPMI with 10% FBS culture medium. To measure the C-myc inhibitory activity of the compounds, the KMS.12.BM cells are plated in the RPMI culture medium at 75000 cells/well/per 200 μL into a 96-well flat bottom polystyrene tissue culture plate (Corning through VWR, NJ), in the presence or absence of a concentration range of test compounds. After 2 hours, cell are pelleted and lysed with Cell Extraction Buffer (BioSource, Carlsbad, Calif.) in the presence of protease inhibitors (Life Technologies, Grand Island, N.Y. and Sigma, St Louis, Mo.). Clarified lyses are tested in a C-myc commercial ELISA (Life Technologies, Grand Island, N.Y.). Compound inhibition is determined relative to cells cultured with no drug and the IC50 is reported as the compound concentration required for 50% C-myc inhibition. IC50 data for the Examples is presented in Table 10 as determined by Assay C1.

| IC50 (BRD4-BD1) [nM] | IC50 (BRD4-BD2) [nM] | IC50 (C-myc) [nM] | SMILES | IC50 (KMS.12.BM cells) [nM] |
| --- | --- | --- | --- | --- |
| < 100 | < 100 | ≤ 1000 | Cn1cc(-c2ccc3c([nH]c(=O)n3C)c2Oc2ccccc2F)c2cc[nH]c2c1=O [Example 39, 4-(2-Fluorophenoxy)-1-methyl-5-(6-methyl-7-oxo-6,7-dihydro-1H-pyrrolo[2,3-c]pyridin-4-yl)-1,3-dihydro-2H-benzimidazol-2-one] | ≤ 1000 |
| < 100 | < 100 | ≤ 1000 | Cn1cc(-c2ccc3c([nH]c(=O)n3C)c2Oc2cccc(F)c2)c2cc[nH]c2c1=O [Example 40, 4-(3-Fluorophenoxy)-1-methyl-5-(6-methyl-7-oxo-6,7-dihydro-1H-pyrrolo[2,3-c]pyridin-4-yl)-1,3-dihydro-2H-benzimidazol-2-one] | ≤ 1000 |
| < 100 | < 100 | ≤ 1000 | Cn1cc(-c2ccc3c([nH]c(=O)n3C)c2Oc2ccc(F)cc2)c2cc[nH]c2c1=O [Example 41, 4-(4-Fluorophenoxy)-1-methyl-5-(6-methyl-7-oxo-6,7-dihydro-1H-pyrrolo[2,3-c]pyridin-4-yl)-1,3-dihydro-2H-benzimidazol-2-one] | ≤ 1000 |
| < 100 | < 100 | ≤ 1000 | Cn1cc(-c2ccc3ncn(CCN4CCOCC4)c3c2Oc2ccccc2)c2cc[nH]c2c1=O [Example 42, 6-Methyl-4-[1-(2-morpholin-4-ylethyl)-7-phenoxy-1H-benzimidazol-6-yl]-1,6-dihydro-7H-pyrrolo[2,3-c]pyridin-7-one] | ≤ 1000 |
| < 100 | < 100 | ≤ 1000 | Cn1cc(-c2ccc3c(ncn3CCN3CCOCC3)c2Oc2ccccc2)c2cc[nH]c2c1=O [Example 43, 6-methyl-4-[1-(2-morpholin-4-ylethyl)-4-phenoxy-1H-benzimidazol-5-yl]-1,6-dihydro-7H-pyrrolo[2,3-c]pyridin-7-one] | ≤ 1000 |
| < 100 | < 100 | ≤ 1000 | Cn1cc(-c2ccc3ncn(Cc4ccccc4)c3c2Oc2ccccc2)c2cc[nH]c2c1=O [Example 45, 4-(1-Benzyl-7-phenoxy-1H-benzimidazol-6-yl)-6-methyl-1,6-dihydro-7H-pyrrolo[2,3-c]pyridin-7-one] | ≤ 1000 |
| < 100 | < 100 | ≤ 1000 | Cn1cc(-c2ccc3c(ncn3Cc3ccccc3)c2Oc2ccccc2)c2cc[nH]c2c1=O [Example 46, 4-(1-Benzyl-4-phenoxy-1H-benzimidazol-5-yl)-6-methyl-1,6-dihydro-7H-pyrrolo[2,3-c]pyridin-7-one] | ≤ 1000 |
| < 100 | < 100 | ≤ 1000 | Cn1cc(-c2ccc3ncn(CCc4ccccc4)c3c2Oc2ccccc2)c2cc[nH]c2c1=O [Example 47, 6-Methyl-4-[7-phenoxy-1-(2-phenylethyl)-1H-benzimidazol-6-yl]-1,6-dihydro-7H-pyrrolo[2,3-c]pyridin-7-one] | ≤ 1000 |
| < 100 | < 100 | ≤ 1000 | Cn1cc(-c2ccc3c(ncn3CCc3ccccc3)c2Oc2ccccc2)c2cc[nH]c2c1=O [Example 48, 6-Methyl-4-[4-phenoxy-1-(2-phenylethyl)-1H-benzimidazol-5-yl]-1,6-dihydro-7H-pyrrolo[2,3-c]pyridin-7-one] | ≤ 1000 |
| < 100 | < 100 | ≤ 1000 | Cn1cc(-c2ccc3ncn(CCCC#N)c3c2Oc2ccccc2)c2cc[nH]c2c1=O [Example 51, 4-[6-(6-Methyl-7-oxo-6,7-dihydro-1H-pyrrolo[2,3-c]pyridin-4-yl)-7-phenoxy-1H-benzimidazol-1-yl]butanenitrile] | ≤ 1000 |
| < 100 | < 100 | ≤ 1000 | Cn1cc(-c2ccc3c(ncn3CCCC#N)c2Oc2ccccc2)c2cc[nH]c2c1=O [Example 52, 4-[5-(6-Methyl-7-oxo-6,7-dihydro-1H-pyrrolo[2,3-c]pyridin-4-yl)-4-phenoxy-1H-benzimidazol-1-yl]butanenitrile] | ≤ 1000 |
| 100 to 1000 | < 100 | ≤ 1000 | COc1c(-c2cn(C)c(=O)c3[nH]ccc23)ccc2c1n(CCCC#N)c(=O)n2C [Example 53, 4-[7-Methoxy-3-methyl-6-(6-methyl-7-oxo-6,7-dihydro-1H-pyrrolo[2,3-c]pyridin-4-yl)-2-oxo-2,3-dihydro-1H-benzimidazol-1-yl]butanenitrile] | ≤ 1000 |
| 100 to 1000 | < 100 | ≤ 1000 | COc1c(-c2cn(C)c(=O)c3[nH]ccc23)ccc2c1n(CCC#N)c(=O)n2C [Example 54, 3-[7-Methoxy-3-methyl-6-(6-methyl-7-oxo-6,7-dihydro-1H-pyrrolo[2,3-c]pyridin-4-yl)-2-oxo-2,3-dihydro-1H-benzimidazol-1-yl]propanenitrile] | ≤ 1000 |
| < 100 | < 100 | ≤ 1000 | Cn1cc(-c2ccc3ncn(CCC#N)c3c2Oc2ccccc2)c2cc[nH]c2c1=O [Example 55, 3-[6-(6-Methyl-7-oxo-6,7-dihydro-1H-pyrrolo[2,3-c]pyridin-4-yl)-7-phenoxy-1H-benzimidazol-1-yl]propanenitrile] | ≤ 1000 |
| < 100 | < 100 | ≤ 1000 | Cn1cc(-c2ccc3c(ncn3C)c2Oc2ccccc2)c2cc[nH]c2c1=O [Example 56, 6-Methyl-4-(1-methyl-4-phenoxy-1H-benzimidazol-5-yl)-1,6-dihydro-7H-pyrrolo[2,3-c]pyridin-7-one] | ≤ 1000 |
| < 100 | < 100 | ≤ 1000 | Cn1cc(-c2ccc3c(ncn3C)c2Oc2ccccc2F)c2cc[nH]c2c1=O [Example 57, 4-[4-(2-Fluorophenoxy)-1-methyl-1H-benzimidazol-5-yl]-6-methyl-1,6-dihydro-7H-pyrrolo[2,3-c]pyridin-7-one] | ≤ 1000 |
| < 100 | < 100 | ≤ 1000 | Cn1cc(-c2ccc3c(ncn3C)c2Oc2cccc(F)c2)c2cc[nH]c2c1=O [Example 58, 4-[4-(3-Fluorophenoxy)-1-methyl-1H-benzimidazol-5-yl]-6-methyl-1,6-dihydro-7H-pyrrolo[2,3-c]pyridin-7-one] | ≤ 1000 |
| < 100 | < 100 | ≤ 1000 | Cn1cc(-c2ccc3c(ncn3C)c2Oc2ccc(F)cc2)c2cc[nH]c2c1=O [Example 59, 4-[4-(4-Fluorophenoxy)-1-methyl-1H-benzimidazol-5-yl]-6-methyl-1,6-dihydro-7H-pyrrolo[2,3-c]pyridin-7-one] | ≤ 1000 |
| < 100 | < 100 | ≤ 1000 | Cn1cc(-c2ccc3c(c2OCC2CCC2)n(CCN2CCOCC2)c(=O)n3C)c2cc[nH]c2c1=O [Example 60, 4-(Cyclobutylmethoxy)-1-methyl-5-(6-methyl-7-oxo-6,7-dihydro-1H-pyrrolo[2,3-c]pyridin-4-yl)-3-(2-morpholin-4-ylethyl)-1,3-dihydro-2H-benzimidazol-2-one] | ≤ 1000 |
| < 100 | < 100 | ≤ 1000 | Cn1cc(-c2ccc3c(c2OCC2CCC2)n(CCCC#N)c(=O)n3C)c2cc[nH]c2c1=O [Example 61, 4-[7-(Cyclobutylmethoxy)-3-methyl-6-(6-methyl-7-oxo-6,7-dihydro-1H-pyrrolo[2,3-c]pyridin-4-yl)-2-oxo-2,3-dihydro-1H-benzimidazol-1-yl]butanenitrile] | ≤ 1000 |
| < 100 | < 100 | ≤ 1000 | Cn1cc(-c2ccc3c(c2OCC2CCC2)n(CCC#N)c(=O)n3C)c2cc[nH]c2c1=O [Example 62, 3-[7-(Cyclobutylmethoxy)-3-methyl-6-(6-methyl-7-oxo-6,7-dihydro-1H-pyrrolo[2,3-c]pyridin-4-yl)-2-oxo-2,3-dihydro-1H-benzimidazol-1-yl]propanenitrile] | ≤ 1000 |
| < 100 | < 100 | ≤ 1000 | Cn1cc(-c2ccc3c(c2OCC2CCC2)n(Cc2ccccc2)c(=O)n3C)c2cc[nH]c2c1=O [Example 64, 3-Benzyl-4-(cyclobutylmethoxy)-1-methyl-5-(6-methyl-7-oxo-6,7-dihydro-1H-pyrrolo[2,3-c]pyridin-4-yl)-1,3-dihydro-2H-benzimidazol-2-one] | ≤ 1000 |
| < 100 | < 100 | ≤ 1000 | CC(=O)N1CCN(CCn2c(=O)n(C)c3ccc(-c4cn(C)c(=O)c5[nH]ccc45)c(OCC4CCC4)c32)CC1 [Example 66, 3-(2-(4-Acetylpiperazin-1-yl)ethyl)-4-(cyclobutylmethoxy)-1-methyl-5-(6-methyl-7-oxo-6,7-dihydro-1H-pyrrolo[2,3-c]pyridin-4-yl)-1H-benzo[d]imidazol-2(3H)-one] | ≤ 1000 |
